We go through 71 compounds from patent US9085562B2, “6-alkyl-N-(pyridin-2-yl)-4-aryloxypicolinamide analogs as mGluR5 negative allosteric modulators and methods of making and using the same” (Vanderbilt University, priority 2011, dated 2015).

One may read the IC50 as the point on the concentration scale where inhibition reaches its midpoint. As usually defined, the bioavailability is the share of a dose that reaches the circulation, judged against a reference dose that is usually intravenous. Broadly, the half-life is the time in which the quantity being followed falls by half. A word on the Cmax: it is the maximum level reached in the sampled fluid or tissue. Broadly, the Tmax is the time from dosing to the highest level.

T1 sequence (P31424 21-1171 isoform P31424-2 limits assumed): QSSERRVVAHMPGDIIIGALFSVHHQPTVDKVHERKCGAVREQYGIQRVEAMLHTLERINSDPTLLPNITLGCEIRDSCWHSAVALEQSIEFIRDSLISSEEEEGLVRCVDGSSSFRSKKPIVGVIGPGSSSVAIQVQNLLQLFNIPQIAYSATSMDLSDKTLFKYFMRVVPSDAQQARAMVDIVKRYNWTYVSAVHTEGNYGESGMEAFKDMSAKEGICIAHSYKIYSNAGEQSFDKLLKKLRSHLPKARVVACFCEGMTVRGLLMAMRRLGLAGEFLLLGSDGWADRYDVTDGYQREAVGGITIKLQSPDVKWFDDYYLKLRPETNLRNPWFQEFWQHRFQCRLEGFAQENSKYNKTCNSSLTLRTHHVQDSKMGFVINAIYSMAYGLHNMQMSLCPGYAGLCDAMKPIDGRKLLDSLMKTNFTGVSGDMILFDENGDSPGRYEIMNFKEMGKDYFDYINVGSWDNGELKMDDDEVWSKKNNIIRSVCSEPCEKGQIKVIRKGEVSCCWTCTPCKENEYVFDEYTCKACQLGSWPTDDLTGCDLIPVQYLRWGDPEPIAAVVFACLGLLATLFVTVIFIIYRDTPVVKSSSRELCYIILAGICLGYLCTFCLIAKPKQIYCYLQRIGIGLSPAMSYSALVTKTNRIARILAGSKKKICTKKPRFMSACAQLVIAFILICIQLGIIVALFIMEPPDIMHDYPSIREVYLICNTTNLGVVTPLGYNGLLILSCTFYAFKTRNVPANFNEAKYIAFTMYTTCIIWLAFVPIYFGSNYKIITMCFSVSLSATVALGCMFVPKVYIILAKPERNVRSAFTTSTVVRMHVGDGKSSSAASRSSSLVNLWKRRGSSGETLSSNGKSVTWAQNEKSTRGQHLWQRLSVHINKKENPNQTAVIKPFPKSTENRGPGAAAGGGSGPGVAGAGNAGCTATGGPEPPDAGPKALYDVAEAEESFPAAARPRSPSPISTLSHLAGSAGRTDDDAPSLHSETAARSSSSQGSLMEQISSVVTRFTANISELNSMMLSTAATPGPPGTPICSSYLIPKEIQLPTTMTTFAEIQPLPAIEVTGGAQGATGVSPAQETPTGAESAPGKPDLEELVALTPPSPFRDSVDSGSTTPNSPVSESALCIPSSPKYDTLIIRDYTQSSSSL

The first series addresses T1, rat mGluR5 (Rattus norvegicus, UniProt P31424).
T1 construct: expressed in transfected cells
The series is described as follows: mGluR5 calcium mobilization assay (HEK 293A cells, FDSS). Format: cell-based. The note with it: HEK cells transfected with rat mGluR5; antagonism of glutamate EC80 response; Table 1. As for the experimental part:
Human embryonic kidney (HEK) cells transfected with rat or human mGluR5 were plated in clear bottom assay plates for assay in a Functional Drug Screening System (FDSS). The cells were loaded with a Ca2+-sensitive fluorescent dye (e.g., Fluo-4), and the plates were washed and placed in the FDSS instrument. Test compound was applied to cells 3 seconds after baseline readings were taken. Cells were incubated with the test compounds for 140 seconds and then stimulated with an EC20 concentration of an mGluR5 agonist (e.g., glutamate, 3,5-dihydroxyphenylglycine, or quisqualate); 60-80 seconds later an EC80 concentration of agonist was added and readings taken for an additional 40 seconds. Data were collected at 1 Hz. […] Concentration response curves were generated using a four parameter logistical equation.
The above described assay was operated in two modes. In the first mode (utilizing a triple add protocol), a range of concentrations of the present compounds were added to cells, followed by two single fixed concentrations of agonist (EC20 followed by EC80). If a compound acted as a potentiator, an EC50 value for potentiation of the EC20 response and a maximum extent of potentiation by the compound at this concentration of agonist was determined by non-linear curve fitting. If a compound acted as an antagonist, an IC50 value for antagonism of the EC80 response and a maximum extent of antagonism by the compound at this concentration of agonist was determined by non-linear curve fitting. In the second mode (utilizing a double add protocol), several fixed concentrations of the present compounds were added to various wells on a plate, followed by a range of concentrations of agonist for each concentration of present compound; the EC50 values for the agonist at each concentration of compound were determined by nonlinear curve fitting. A decrease in the EC50 value of the agonist with increasing concentrations of the present compounds (a leftward shift of the agonist concentration-response curve) is an indication of the degree of mGluR5 positive allosteric modulation at a given concentration of the present compound. An increase in the EC50 value of the agonist with increasing concentrations of the present compounds (a rightward shift of the agonist concentration response curve) is an indication of the degree of mGluR5 antagonism at a given concentration of the present compound. The second mode also indicates whether the present compounds also affect the maximum response to mGluR5 to agonists.
The mGluR5 activity was determined using the metabotropic glutamate receptor activity assays in human embryonic kidney cells as described herein, wherein the human embryonic kidney cells were transfected with rat mGluR5. The mGluR5 activity data for some compounds are shown as the average of at least three experiments with the standard error in these cases. If no error is indicated for the mGluR5 activity, the values given represent the results from a single experiment or the average of two experiments. The compounds in Table 1 were synthesized with methods identical or analogous to those shown herein. The requisite starting materials were commercially available, described in the literature, or readily synthesized by one skilled in the art of organic synthesis.
The cells were grown overnight at 37° C. in the presence of 5% CO2. […] Dye was removed, 20 μL of assay buffer was added, and the plate was incubated for 10 minutes at room temperature.
Ca^2+ flux was measured using the Functional Drug Screening System (FDSS6000, Hamamatsu, Japan). After establishment of a fluorescence baseline for about 3 seconds, the compounds of the present invention were added to the cells, and the response in cells was measured.
In the case of `Cc1cc(Oc2cnc(C)nc2)cc(C(=O)Nc2cc(F)ccn2)n1`, the IC50 turned out to be 1890 nM.

Regarding `Cc1cccc(NC(=O)c2cc(Oc3cnc(C)nc3)cc(C)n2)n1`, the IC50 came out at 20 nM.

In the case of `Cc1cc(Oc2cnc(C)nc2)cc(C(=O)Nc2cccc(F)n2)n1`, the IC50 came out at 21 nM.

As to `Cc1cc(Oc2cnc(C)nc2)cc(C(=O)Nc2ccc(Cl)cn2)n1`, the IC50 came out at 209 nM.

Take `Cc1cc(Oc2ccc(C(F)(F)F)nc2)cc(C(=O)Nc2ccc(F)cn2)n1`: the IC50 stood at 255 nM.

Turning to `Cc1cc(Oc2ccc(C(F)(F)F)nc2)cc(C(=O)Nc2cc(F)ccn2)n1`, the IC50 is 4880 nM.

As for `Cc1cccc(NC(=O)c2cc(Oc3ccc(C(F)(F)F)nc3)cc(C)n2)n1`, the IC50 was 177 nM.

Turning to `Cc1cc(Oc2ccc(C(F)(F)F)nc2)cc(C(=O)Nc2cccc(F)n2)n1`, the 50% inhibitory concentration (IC50) is 397 nM.

With `Cc1cc(Oc2ccc(C(F)(F)F)nc2)cc(C(=O)Nc2ccc(Cl)cn2)n1`, the IC50 was more than 30000 nM.

Take `Cc1cc(Oc2cncc(C#N)c2)cc(C(=O)Nc2cc(F)ccn2)n1`: the IC50 worked out at 15 nM.

Regarding `Cc1cc(Oc2cncc(C#N)c2)cc(C(=O)Nc2ccc(F)cn2)n1`, the IC50 was found to be 5.4 nM.

On to `CCc1cccc(NC(=O)c2cc(Oc3cccnc3)cc(C)n2)n1`, for which the IC50 was determined as 13 nM.

On to `Cc1cc(Oc2cccnc2)cc(C(=O)Nc2ccc(Cl)cn2)n1`, for which the IC50 came out at 5.5 nM.

Consider `Cc1ccc(NC(=O)c2cc(Oc3cccnc3)cc(C)n2)nc1`, for which the IC50 stood at 10 nM.

As to `CCc1cccc(NC(=O)c2cc(Oc3ccc(C)nc3)cc(C)n2)n1`, the IC50 is 152 nM.

As to `Cc1ccc(Oc2cc(C)nc(C(=O)Nc3cc(F)ccn3)c2)cn1`, the half-inhibitory concentration (IC50) stood at 1800 nM.

Consider `Cc1ccc(NC(=O)c2cc(Oc3ccc(C)nc3)cc(C)n2)nc1`, for which the IC50 worked out at 966 nM.

On to `Cc1cc(Oc2cccnc2)cc(C(=O)Nc2ccc(F)cn2)n1`, for which the IC50 stood at 4.1 nM.

For `Cc1cc(Oc2cccnc2)cc(C(=O)Nc2cc(F)ccn2)n1`, the IC50 was determined as 26 nM.

In the case of `Cc1ccc(Oc2cc(C)nc(C(=O)Nc3ccc(Cl)cn3)c2)cn1`, the IC50 came to 635 nM.

Regarding `Cc1cc(Oc2cccnc2)cc(C(=O)Nc2cc(C#N)ccn2)n1`, the IC50 is more than 10000 nM.

As for `Cc1cc(Oc2cccnc2)cc(C(=O)Nc2cccc(F)n2)n1`, the IC50 was 3.4 nM.

Consider `Cc1cccc(NC(=O)c2cc(Oc3cccnc3)cc(C)n2)n1`, for which the IC50 came to 4.4 nM.

On to `Cc1ccc(Oc2cc(C)nc(C(=O)Nc3cccc(C)n3)c2)cn1`, for which the IC50 stood at 13 nM.

In the case of `Cc1ccc(Oc2cc(C)nc(C(=O)Nc3cc(C#N)ccn3)c2)cn1`, the IC50 was 387 nM.

`Cc1ccc(Oc2cc(C)nc(C(=O)Nc3ccc(F)c(C)n3)c2)cn1`: the IC50 worked out at 328 nM.

Regarding `Cc1cc(Oc2cncc(Cl)c2)cc(C(=O)Nc2cccc(F)n2)n1`, the IC50 stood at 5.3 nM.

As to `Cc1ccc(NC(=O)c2cc(Oc3cncc(Cl)c3)cc(C)n2)nc1`, the IC50 is 6.4 nM.

As to `Cc1cc(Oc2cncc(Cl)c2)cc(C(=O)Nc2cc(C#N)ccn2)n1`, the IC50 is 548 nM.

In the case of `Cc1cccc(NC(=O)c2cc(Oc3cncc(Cl)c3)cc(C)n2)n1`, the IC50 stood at 6.7 nM.

Take `Cc1cc(Oc2cccnc2)cc(C(=O)Nc2ccc(C#N)cn2)n1`: the IC50 turned out to be 14 nM.

For the compound `Cc1cc(Oc2cccnc2)cc(C(=O)Nc2ccc(C(F)(F)F)cn2)n1`, the IC50 turned out to be 1110 nM.

Consider `Cc1ccc(Oc2cc(C)nc(C(=O)Nc3cccc(F)n3)c2)cn1`, for which the IC50 came to 64 nM.

Consider `Cc1ccc(Oc2cc(C)nc(C(=O)Nc3cccc(Cl)n3)c2)cn1`, for which the IC50 is 172 nM.

Consider `Cc1ccc(Oc2cc(C)nc(C(=O)Nc3ccc(C#N)cn3)c2)cn1`, for which the IC50 was 693 nM.

Turning to `Cc1ccc(Oc2cc(C)nc(C(=O)Nc3ccc(C(F)(F)F)cn3)c2)cn1`, the IC50 was more than 30000 nM.

As to `Cc1cc(Oc2cncc(Cl)c2)cc(C(=O)Nc2ccc(Cl)cn2)n1`, the IC50 was 18 nM.

For `Cc1cc(Oc2cncc(Cl)c2)cc(C(=O)Nc2cccc(Cl)n2)n1`, the IC50 was found to be 14 nM.

`Cc1cc(Oc2cncc(Cl)c2)cc(C(=O)Nc2ccc(C#N)cn2)n1`: the IC50 came out at 11 nM.

`Cc1cc(Oc2cncc(Cl)c2)cc(C(=O)Nc2ccc(F)c(C)n2)n1`: the IC50 amounted to 14 nM.

Turning to `CCc1cccc(NC(=O)c2cc(Oc3cncc(Cl)c3)cc(C)n2)n1`, the IC50 is 14 nM.

With `Cc1cc(Oc2cncc(Cl)c2)cc(C(=O)Nc2ccc(C(F)(F)F)cn2)n1`, the IC50 is more than 10000 nM.

As for `CCc1cc(Oc2cncnc2)cc(C(=O)Nc2cccc(C)n2)n1`, the IC50 stood at 6.1 nM.

Take `CCc1cc(Oc2cncc(F)c2)cc(C(=O)Nc2ccc(F)cn2)n1`: the IC50 worked out at 11 nM.

For the compound `CCc1cc(Oc2cncnc2)cc(C(=O)Nc2cccc(Cl)n2)n1`, the IC50 is 14 nM.

For `CCc1cc(Oc2cncc(F)c2)cc(C(=O)Nc2ccc(C)cn2)n1`, the 50% inhibitory concentration (IC50) came to 41 nM.

In the case of `CCc1cccc(NC(=O)c2cc(Oc3cncc(F)c3)cc(CC)n2)n1`, the concentration for half-maximal inhibition (IC50) came out at 468 nM.

Regarding `CCc1cc(Oc2cncc(F)c2)cc(C(=O)Nc2cc(F)ccn2)n1`, the half-inhibitory concentration (IC50) was found to be 333 nM.

`CCc1cc(Oc2cncc(F)c2)cc(C(=O)Nc2ccc(Cl)cn2)n1`: the IC50 was found to be 333 nM.

`CCc1cc(Oc2cncc(F)c2)cc(C(=O)Nc2cccc(Cl)n2)n1`: the IC50 stood at 59 nM.

As for `CCc1cc(Oc2cncnc2)cc(C(=O)Nc2ccc(C#N)cn2)n1`, the IC50 was 156 nM.

Consider `CCc1cc(Oc2cncnc2)cc(C(=O)Nc2ccc(F)c(C)n2)n1`, for which the IC50 was found to be 27 nM.

In the case of `CCc1cc(Oc2cncnc2)cc(C(=O)Nc2cccc(F)n2)n1`, the IC50 amounted to 24 nM.

For `CCc1cc(Oc2cncnc2)cc(C(=O)Nc2cc(C)c(F)cn2)n1`, the IC50 is 677 nM.

In the case of `CCc1cc(Oc2cncc(F)c2)cc(C(=O)Nc2cccc(C)n2)n1`, the IC50 came out at 13 nM.

In the case of `CCc1cc(Oc2cncc(F)c2)cc(C(=O)Nc2ccc(C#N)cn2)n1`, the IC50 was found to be 108 nM.

On to `CCc1cccc(NC(=O)c2cc(Oc3cncnc3)cc(CC)n2)n1`, for which the IC50 was determined as 19 nM.

In the case of `CCc1cc(Oc2cncc(F)c2)cc(C(=O)Nc2ccc(F)c(C)n2)n1`, the IC50 was 159 nM.

For `CCc1cc(Oc2cncnc2)cc(C(=O)Nc2ccc(F)cn2)n1`, the IC50 stood at 9.3 nM.

For the compound `CCc1cc(Oc2cncnc2)cc(C(=O)Nc2ccc(C)cn2)n1`, the IC50 is 27 nM.

In the case of `CCc1cc(Oc2cncc(F)c2)cc(C(=O)Nc2cc(C)c(F)cn2)n1`, the IC50 is more than 30000 nM.

As to `CCc1cc(Oc2cncnc2)cc(C(=O)Nc2ccc(Cl)cn2)n1`, the IC50 amounted to 25 nM.

As for `CCc1cc(Oc2cncc(F)c2)cc(C(=O)Nc2cccc(F)n2)n1`, the IC50 came out at 18 nM.

In the case of `Cc1cc(Oc2cncc(F)c2)cc(C(=O)Nc2cccc(Cl)n2)n1`, the IC50 came out at 8.2 nM.

As to `CCc1cc(Oc2cncnc2)cc(C(=O)Nc2ccc(C(F)(F)F)cn2)n1`, the IC50 is more than 30000 nM.

For the compound `CCc1cc(Oc2cncc(F)c2)cc(C(=O)Nc2ccc(C(F)(F)F)cn2)n1`, the IC50 is more than 30000 nM.

On to `Cc1cc(Oc2cncc(Cl)c2)cc(C(=O)Nc2ccccn2)n1`, for which the IC50 turned out to be 2.2 nM.

On to `Cc1ccc(NC(=O)c2cc(Oc3cncnc3)cc(C(F)F)n2)nc1`, for which the half-maximal inhibitory concentration (IC50) was 72 nM.

Regarding `Cc1ccc(NC(=O)c2cc(Oc3cncc(F)c3)cc(C)n2)nc1`, the half-inhibitory concentration (IC50) was found to be 6.8 nM.

Test system in a further series: not listed separately
The series is described as follows: Rat IV/PO pharmacokinetics. The note with it: in vivo; Rat IV/PO. The text has this: Additional physicochemical and pharmacological data are provided below in Tables 2-4 for Test Compounds 1 and 2 (Compounds […] and (2) as described herein).
`Cc1cc(Oc2cncnc2)cc(C(=O)Nc2ccc(F)cn2)n1` [drawing 265] showed a bioavailability of 30 to 76%, a clearance of 19.2 mL/min/kg and a half-life of 0.47 h.

`Cc1cc(Oc2cncc(F)c2)cc(C(=O)Nc2ccc(F)cn2)n1` [drawing 266] showed a bioavailability of 67 to 75%, a clearance of 9.15 mL/min/kg and a half-life of 4.7 h.

Staying with this series, now noted: in vivo; Rat IV/PO; read-out: Vss.
With `Cc1cc(Oc2cncnc2)cc(C(=O)Nc2ccc(F)cn2)n1` [drawing 265], the Vd was 1.78 L/kg.

For the compound `Cc1cc(Oc2cncc(F)c2)cc(C(=O)Nc2ccc(F)cn2)n1` [drawing 266], the Vd came out at 1.89 L/kg.

Staying with this series, now noted: in vivo; Rat PO.
On to `Cc1cc(Oc2cncnc2)cc(C(=O)Nc2ccc(F)cn2)n1` [drawing 265], for which the Cmax was 2170 nM and the Tmax was found to be 0.5 h.

On to `Cc1cc(Oc2cncc(F)c2)cc(C(=O)Nc2ccc(F)cn2)n1` [drawing 266], for which the Cmax is 3330 nM and the Tmax is 1.5 h.
